According to patent US6479469B2, “Treatment of arthritis and compositions therefore” (priority 2000, dated 2002):
“Also recorded” adds a separate entry of the source.

Columns and labels:
[1] = humans, cited from earlier work
chondrocytes (BAC) = assay: BAC growth assay (chondrocyte cell proliferation, Coulter count); assay type: cell-based, bovine; settings: for effect on cell growth: 0-6 mM, serum 20%, FIG. 10; for effect on cell growth / effect on the proliferation of chondrocytes: BAC subculture 6; for effect on the proliferation of chondrocytes: 1 mg/ml, glucose 0.5 mg/ml, TGF-β 10 μg/ml, serum 10%, FIG. 8
Experimental: Cartilage slices were removed aseptically from bovine knee joint and digested with collagenase to obtain single cell chondrocytes. Both primary cultures and subcultures were established by procedures described previously (Chan C. and Anastassiades T., Biochem Cell Biol 74:233-240, 1996; Howard S. and Anastassiades T., J Rheumatol 20:2083-2094, 1993).For the growth assays, cells were seeded at 15,000 cells/well and 33,000 cells/well for the 24 and 6 well plates, respectively, in glucose free Dulbecco's modified Eagle's culture medium, base which was supplemented with glucose (1 mg/ml) and serum (10%). These cells were incubated in a humidified atmosphere of 95% air and 5% carbon dioxide at 37° C. On the following day, the medium was changed to fresh medium containing test materials of interest. The cells were harvested at time intervals and cell number determined using Coulter counter (Coulter Electronics Inc. Florida, USA). Results are expressed as the means of three replicate wells and each well was counted twice. The data are presented as mean ± SEM.
Initial studies examined the effect of 1 mg/ml of GlcN, GlcNac, GlcNpr and GlcNbu on the proliferation of chondrocytes (BAC subculture 6) maintained in medium supplemented with glucose (0.5 mg/ml), TGF-β (10 μg/ml) and serum (10%). […] The cells barely thrive at serum concentrations lower than 10% (data not shown).
Further experiments were carried out to determine whether the growth stimulation could be due to butyrate group or a mechanism solely dependent on GlcNbu. In this case, chondrocytes (BAC subculture 6) were maintained in culture in the presence of glucose (1 mg/ml), serum (20%) and various concentrations (0-6 mM) of sodium butyrate, GlcNbu and GlcN. […] Therefore, the growth stimulation observed is due to GlcNbu. The effect of GlcNbu at varying glucose medium concentrations (0-0.5 mg/ml) were evaluated using early and late subcultured chondrocytes.

bovine chondrocytes = settings: in vitro; cited from earlier work
[2] = system: experimentally induced inflammatory arthritis in Lewis rats; assay: Streptococcal cell wall induced inflammatory arthritis model, clinical assessment of hind legs; assay type: in vivo, rat; settings: 18 days
Description: The experimental arthritis was induced by injecting cell walls of streptococcal bateria intra-peritoneally into Lewis rats. The resulting arthritis leads to cartilage and bone destruction in the injected rat. This experimental model is considered to provide some of the most useful insights in the development of human inflammatory, destructive arthropathies.
Method: Inflammatory arthritis was induced in Lewis strain rats by a single intra-peritoneal injection of the streptococcal wall pepti-polysaccharide antigen, as described in Brahn E. “Animal models of rheumatoid arthritis. Clues to etiology and treatment.” Clin Orthop. 1991 Apr; (265): 42-53. Review. Van den Broek M F, van Bruggen M C, Simpson S A, Severijnen A J, van de Putte L B, van den Berg W B. “Flare-up reaction of streptococcal cell wall induced arthritis in Lewis and F344 rats: the role of T lymphocytes.” Clin Exp Immunol. 1990 Feb; 79 (2): 297-306. Chen W., Jin W, Cook M, Weiner H L, Wahl S M. “Oral delivery of group A streptococcal cell walls augments circulating TGF-beta and suppresses streptococcal cell wall arthritis.” J Immunol. 1998 Dec. 1; 161 (11): 6297-304. On the same day as the injection, the rats had their drinking water supplemented either with 5 mg or 50 mg of GlcN or GlcNBu in 400 ml of water. There were three rats in each of the above groups. The rats drank the water containing the above compounds in an unrestricted fashion. The drinking water was replenished, when finished, so that the rats drank the same concentrations of the compounds throughout the experimental observation period. Each animal consumed approximately between 20-30 ml of water each day for each of the groups. After 18 days of experimental observation, the rats' hind legs were visually inspected for clinical assessment of the development of arthritis.

[3] = system: mucopolysaccharides (glycosaminoglycans); settings: Biochem. Pharmacol. (1973) 22:3018; cited from earlier work
[4] = system: Bovine Articular Chondrocytes; assay: Glycosaminoglycan synthesis by Bovine Articular Chondrocytes (35S incorporation); assay type: cell-based; settings: 0.1 mM GlcNBu; 35S label 4 days; per well; control 82,000 CPM; FIG. 14
Experimental: Bovine articular chondrocytes were grown to confluency in 35 mm wells and labelled with ^35S for 4 days in the presence of different concentrations of GlcNBu. The Glycosaminoglycans (GAG) were isolated from the medium and the radioactivity incorporated into the isolated GAG was determined
With reference to FIG. 14, the results are expressed on a per well basis and represent the means and standard deviations from four replicate wells. […] The control (0 mM concentration of GlcNBu) is the first point on the left indicating 82,000 CPM and the lowest concentration of GlcNBu is 0.1 mM indicating 112,000 CPM.

dog with hip dysplasia = assay: Dog Study-2, dog with hip dysplasia, daily journal and video record; assay type: in vivo; settings: 500 mg per day on food, one week
Experimental: 1 Week administration to arthritic/dysplastic dogs @ 500 mg set daily dose. Daily Journal and Video record was kept as described under Dog Study-1.
The subject was a 16-year-old female labrador crossbreed which had hip dysplasia evident in both hind limbs due to either age or an injury sustained at the age of 9 years.
Phase 1 The MGD was administered at 500 mg per day for a period of one week in a solution poured onto food.

[5] = system: dog with osteoarthritis due to anterior cruciate ligament injury; assay: Dog Study-1, osteoarthritic dog, daily journal and video record; assay type: in vivo
Experimental: 1 Week administration to arthritic/dysplastic dogs @500 mg set daily dose. A Daily Journal and Video record was kept.
The subject was a 9-year-old female collie crossbreed which had osteoarthritis due to a prior left anterior cruciate ligament injury (a previous tear now repaired). […] The animal is currently medicated with glucosamine at 500 mg per day.
For both Phase 1 and Phase 2 a video diary of a few minutes of two or three of the animal's exercise periods and a daily journal of casual observations was kept.

| Compound | effect on cell growth (chondrocytes (BAC); glucose 1 mg/ml) | effect on the proliferation of chondrocytes (chondrocytes (BAC)) | clinical assessment of arthritis in hind legs ([2]; 5 mg in 400 ml drinking water) | clinical assessment of arthritis in hind legs ([2]; 50 mg in 400 ml drinking water) | owner-observed mobility / behaviour (dog with hip dysplasia) | other results |
| --- | --- | --- | --- | --- | --- | --- |
| N[C@@H](C=O)[C@@H](O)[C@H](O)[C@H](O)CO [GlcN, 2-amino-2-deoxy-D-glucose, reference compound] | decreased cell growth | inhibited cell growth compared to control | well-developed arthritis with swelling and redness in both of the hind lower legs | well-developed arthritis with swelling and redness in the right lower leg and less so in the left lower leg |  | serum levels after oral or IV administration ([1]; very large doses): serum levels cannot be detected; growth or survival of chondrocytes (bovine chondrocytes): does not support growth or even survival of chondrocytes |
| CCCC(=O)[O-].[Na+] [sodium butyrate, reference compound] | decreased cell growth |  |  |  |  |  |
| CCC(=O)N[C@H]1C(O)O[C@H](CO)[C@@H](O)[C@@H]1O (stereo partly drawn) [GlcNpr, N-propionylglucosamine] |  | much reduced effect on cell growth |  |  |  | incorporation of labeled glucosamine into mucopolysaccharides [3]: inhibits the incorporation of labeled glucosamine into mucopolysaccharides |
| CCCC(=O)N[C@H]1C(O)O[C@H](CO)[C@@H](O)[C@@H]1O (stereo partly drawn) [GlcNbu, N-Butyryl-D-glucosamine (2-n-Butanamido-2-deoxy-D-glucopyranose)] | increased cell growth | significantly stimulated cell growth | normal hind lower legs and no clinical evidence of arthritis | minimal swelling in the right lower leg and probably a normal left lower leg | a period of improvement | cell growth at various serum concentrations (chondrocytes (BAC); GlcNbu 0.4-10 mM, glucose 1 mg/ml, 10% vs 20% serum, FIG. 9): more increase in cell growth at 20% than 10% serum; stimulation of cell growth at varying glucose medium concentrations (chondrocytes (BAC); glucose 0-0.5 mg/ml, early and late subcultured chondrocytes, FIGS. 11 and 12): higher in the absence of glucose or very low glucose concentration; radioactivity incorporated into the GAG [4]: 112,000 CPM |
| CC(=O)N[C@H]1C(O)O[C@H](CO)[C@@H](O)[C@@H]1O (stereo partly drawn) [GlcNac, N-acetylglucosamine, reference compound] |  | much reduced effect on cell growth |  |  |  | half-life compared to glucosamine ([1]; Clin. Ther. (1996) 18:1184): longer half-life |
| N-Butyryl-D-glucosamine (2-n-Butanamido-2-deoxy-D-glucopyranose) [GlcNbu] |  |  |  |  | isolated examples of improvement | tolerability ([5]; 500 mg per day on food, one week): tolerated at least at the same level as glucosamine; adverse reactions ([5]; 500 mg per day, one week): no adverse reactions were observed; protective effects (mobility/stiffness) compared to glucosamine ([5]; Phase 1, 500 mg per day, one week, listed as MGD): at least as good as glucosamine; also recorded: no appreciable difference from baseline; observation after withdrawal ([5]; Phase 2, Day 7 after MGD discontinued, listed as MGD): recurrence of a slight limp; also recorded: much stiffer gait and a slight limp |
